Assay [1] concerns PCA reaction. The assay can be described thus: Anti-allergic action: passive cutaneous anaphylaxis test (PCA reaction). The note with it: rat, injected into a vein. It is filed as in vivo. As to the method:
A rat was immunized with egg-albumin suspended in aluminum hydroxide gel in a conventional manner and a blood letting was carried out to obtain immune serum rich in IgE.
A male rat was anethtized with ether and hairs on back were sheared to intradenally inject by 0.1 ml of the immune serum solution described in Item (1) and diluted to 5-folds, at both sides with a certain distance from a medial line on the back. After 72 hours, a mixed solution of egg albumin (5 mg/kg), 2% Evans blue and a test compound ([L-Leu^17 ]-VIP-Hse or pure native VIP) or disodium cromoglycate was injected into a vein. After 30 minutes from an occasion of PCA reaction, the experimental animal was killed and pealed-off the skin to obtain a piece of the skin dyed with the coloring matter.
The coloring matter was extracted in accordance with the method described by Katayama ["Microbio. Immunol.", Vol. 22, No. 2, pages 89 (1978)] and an amount thereof was measured at 620 nm in wave length to calculate an inhibition of the PCA reaction.

Assay [2] has as its system arterial pressure. The assay can be described thus: Hypotensing action: arterial pressure after injection in femoral artery. The format is in vivo. As to conditions: anethtized beagle dog, 0.02-10 μg/kg. Here is the method: In a femoral artery of anethtized beagle dog, each of the VIP analogues as Test Samples was injected in a dose of 0.02-10 μg/kg and measured an arterial pressure to prepare a chart showing a relation between the dose and change in blood pressure and check an amount of dose which shall cause a reduction of 15 mmHg in blood pressure.

Consider `O=C([O-])c1cc(=O)c2c(OCC(O)COc3cccc4oc(C(=O)[O-])cc(=O)c34)cccc2o1.[Na+].[Na+]` [Disodium cromoglycate], for which the “Inhibition (%) of the PCA reaction” value came out at 5% in assay [1] (dose 0.01 mg/kg), 28% in assay [1] (dose 0.1 mg/kg) and 31% in assay [1] (dose 1.0 mg/kg).

In the case of `CC[C@H](C)[C@H](NC(=O)[C@H](CO)NC(=O)[C@H](CC(N)=O)NC(=O)[C@H](CC(C)C)NC(=O)[C@H](Cc1ccc(O)cc1)NC(=O)[C@H](CCCCN)NC(=O)[C@H](CCCCN)NC(=O)[C@@H](NC(=O)[C@H](C)NC(=O)[C@H](CCSC)NC(=O)[C@H](CCC(N)=O)NC(=O)[C@H](CCCCN)NC(=O)[C@H](CCCNC(=N)N)NC(=O)[C@H](CC(C)C)NC(=O)[C@H](CCCNC(=N)N)NC(=O)[C@@H](NC(=O)[C@H](Cc1ccc(O)cc1)NC(=O)[C@H](CC(N)=O)NC(=O)[C@H](CC(=O)O)NC(=O)[C@@H](NC(=O)[C@H](Cc1ccccc1)NC(=O)[C@@H](NC(=O)[C@H](C)NC(=O)[C@H](CC(=O)O)NC(=O)[C@H](CO)NC(=O)[C@@H](N)Cc1c[nH]cn1)C(C)C)[C@@H](C)O)[C@@H](C)O)C(C)C)C(=O)N[C@@H](CC(C)C)C(=O)N[C@@H](CC(N)=O)C(N)=O` [Native VIP, vasoactive intestinal polypeptide], in assay [2], the “amount of dose causing a reduction of 15 mmHg in blood pressure, relative value (native VIP = 100%)” value came to 100%. For the same molecule, the results for the “Inhibition (%) of the PCA reaction” value in assay [1] (dose 0.01 mg/kg), in assay [1] (dose 0.1 mg/kg) and in assay [1] (dose 1.0 mg/kg) were 23%, 72% and 67%, respectively.

“[L-Leu^17 ]-VIP-Hse-NH(CH2)9 CH3 [[L-Leu^17]-VIP-NH(CH2)9 CH3]”: in assay [2], the “amount of dose causing a reduction of 15 mmHg in blood pressure, relative value (native VIP = 100%)” value is 68%.

The values are drawn from patent US5428015A, “Vasoactive intestinal polypeptide analogues and use thereof” (Sana Kagaku Kenkyusho Co., Ltd., priority 1990, dated 1995).
